Results taken from patent US20260209208A1, “PHENYL-PYRAZOLE CARBOXAMIDE COMPOUNDS” (Acrivon Therapeutics, Inc., priority 2022, published 2026).
pEC50, pIC50: −log10 of the molar value.

Assays:
[1] = target: T1, recombinant human PMYT-1 (Myt1 kinase) (Homo sapiens, UniProt Q99640); test: LanthaScreen Europium (Eu) Kinase Binding Assay for Myt1 kinase; details: TR-FRET tracer 178 displacement, GST-tagged full length PMYT-1, 60 min, room temperature; mean IC50; read-out: LANTHA Kinase Binding for PMyt1
T1 construct: full length PMYT-1 was expressed by baculovirus in insect cells using a N-terminal GST tag; purchased Invitrogen A30984; host or cells: insect cells (baculovirus)
T1 sequence (Q99640 1-499): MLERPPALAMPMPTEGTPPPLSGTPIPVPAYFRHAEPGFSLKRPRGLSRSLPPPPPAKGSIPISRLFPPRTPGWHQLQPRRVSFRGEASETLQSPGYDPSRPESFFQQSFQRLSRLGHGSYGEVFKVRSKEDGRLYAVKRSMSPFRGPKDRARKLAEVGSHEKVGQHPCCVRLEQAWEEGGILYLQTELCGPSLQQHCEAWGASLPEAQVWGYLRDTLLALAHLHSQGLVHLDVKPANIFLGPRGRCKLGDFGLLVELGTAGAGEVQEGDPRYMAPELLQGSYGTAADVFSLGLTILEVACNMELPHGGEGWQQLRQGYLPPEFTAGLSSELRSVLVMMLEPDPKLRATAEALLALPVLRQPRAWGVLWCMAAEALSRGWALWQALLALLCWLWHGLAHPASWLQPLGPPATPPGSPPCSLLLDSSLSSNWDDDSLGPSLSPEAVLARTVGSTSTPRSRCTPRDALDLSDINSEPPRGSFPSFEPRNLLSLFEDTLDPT
Excerpt: We used a LanthaScreen Europium (Eu) Kinase Binding Assay to determine the binding of provided compounds to Myt1 kinase. The assay utilizes an Alexa Fluor 647-labeled ATP competitive kinase tracer that binds to the ATP binding site of a GST-tagged Myt1 kinase, while a europium (Eu) labeled antibody binds to the GST tag. The proximity of fluorescently labeled kinase tracer and europium (Eu) donor fluorophore antibody leads to fluorescence resonance energy transfer (FRET) to the fluorescence label (acceptor) upon excitation of the Eu (donor). Displacement of tracer from the ATP-binding site by a test compound disturbs the proximity between both labels thus lowering the FRET.
This time resolved-FRET binding assay was performed in white 384-well low volume plates (Greiner, cat #784075), at room temperature in kinase buffer A (KBA; Invitrogen cat # PV3189), consisting of 50 mM HEPES-NaOH (pH 7.5), 0.01% Brij-35, 10 mM MgCl2, and 1 mM EGTA. 5 μl of compound (diluted in reaction buffer, to 1% DMSO) were added to various wells in the plate, followed by 5 μl each of recombinant human PMYT-1 (full length PMYT-1 was expressed by baculovirus in insect cells using a N-terminal GST tag (MW: 80.8 kDa) (Invitrogen cat #A30984) and LanthaScreen Eu-anti-GST antibody (Invitrogen, cat #PV5594). After this, 5 μl of kinase tracer 178 (Invitrogen, cat #PV5593) was added to the plate and the plate was incubated for 60 minutes at room temperature. The final assay conditions in each well were: 3 nM tracer 178, 2.5 nM PMYT-1 and 1 nM Eu-labeled antibody in total assay volume of 15 μl. An Envision 2104 (Perkin-Elmer) Plate Reader with the following time-resolve fluorescence setting was used for performing LanthaScreen kinase binding assay. • Excitation 320 nm (30 nm bandpass) • Kinase Tracer Emission 665 nm (10 nm bandpass) • LanthaScreen Eu-anti-Tag Antibody Emission 615 nm (10 nm bandpass) • Dichroic Mirror Instrument dependent • Delay Time 100 μs • Integration Time 200 μs
To calculate the emission ratio, the acceptor/tracer emission ([…]) was divided by the antibody/donor emission ([…]) and the average of duplicate measurement was used for calculations. Data plotting, analysis of binding, and curve fitting was done using Excel add-in XLfit version 5.5.0.5 (IDBS, Guildford, United Kingdom).

Myt1 Kinase = target: T2, Myt1 Kinase (Homo sapiens, UniProt Q99640); test: AlphaLISA SureFire Ultra Human Phospho-CDK1 (Thr14) target engagement assay in DAOY cells; assay type: cell-based; details: 4 h incubation, Cdk1 phosphorylated on threonine 14, read-out: TE Myt1 Kinase (AlphaLISA)
T2 construct: endogenous in cells; host or cells: DAOY medulloblastoma cells (ATCC)
T2 sequence (Q99640 1-499): T1 sequence (Q99640 1-499)
Method: The following cellular assay was used to determine the extent to which the compounds disclosed herein inhibit phosphorylation of CDK1 at Thr 14.
DAOY medulloblastoma cell line (ATCC) was cultured in Minimum Essential Medium Eagle supplemented with 10% fetal calf serum (Sigma), 1% Penicillin-Streptomycin and 10 mM HEPES buffer (HyClone). Cell cultures were kept in a humidified incubator at 37° C. and 5% CO2. Cells were routinely tested for Mycoplasma contamination.
For target engagement assessment, quantification of Cdk1 phosphorylated on threonine 14 was detected using the AlphaLISA® SureFire® Ultra™ Human Phospho-CDK1 (Thr14) assay (Perkin Elmer). DAOY cells were seeded into tissue culture 96-well plates (VWR) to a density of 10,000 cells per well. Twenty-four hours post-seeding cells were incubated for 4 h with test compounds at concentrations ranging from 7 to 5000 nM. Cells were washed with PBS and lysed in 50 μl AlphaLISA® lysis buffer before freezing at −80° C. Ten μl of the lysate was transferred to 384 well plates and incubated with AlphaLISA® donor and acceptor beads according to the manufacturer's instructions. Dose response curves and EC50 values were calculated and visualized using GraphPad Prism version 9.

Cc1ccc2[nH]nc(C)c2c1-n1nc(-c2ccco2)c(C(N)=O)c1N (atropisomer, axis not shown) [Compound 116, 5-amino-1-(3,5-dimethyl-1H-indazol-4-yl)-3-(furan-2-yl)-1H-pyrazole-4-carboxamide]
pIC50 [1]: < 6.60

Cc1ccc2[nH]nc(C)c2c1-n1nc(-c2ccco2)c(C(N)=O)c1N (single isomer, unassigned) [Compound 103, 5-amino-1-(3,5-dimethyl-1H-indazol-4-yl)-3-(furan-2-yl)-1H-pyrazole-4-carboxamide]
pIC50 [1]: 7.00 to 8.00

Cc1ccc(O)c(C)c1-n1nc(-c2ccco2)c(C(N)=O)c1N (single isomer, unassigned) [Compound 105, 5-amino-3-(furan-2-yl)-1-(3-hydroxy-2,6-dimethylphenyl)-1H-pyrazole-4-carboxamide]
pIC50 [1]: 7.00 to 8.00
pEC50 (Myt1 Kinase): < 6.00

Cc1ccc(O)c(C)c1-n1nc(-c2cc3ccccc3o2)c(C(N)=O)c1N (single isomer, unassigned) [Compound 109, 5-amino-3-(benzofuran-2-yl)-1-(3-hydroxy-2,6-dimethylphenyl)-1H-pyrazole-4-carboxamide]
pIC50 [1]: < 6.60

Cc1ccc(O)c(C)c1-n1nc(-c2cc(Br)co2)c(C(N)=O)c1N (single isomer, unassigned) [Compound 110, 5-amino-3-(4-bromofuran-2-yl)-1-(3-hydroxy-2,6-dimethylphenyl)-1H-pyrazole-4-carboxamide]
pIC50 [1]: 6.60 to 7.00

Cc1ccc(O)cc1-n1nc(-c2ccccc2)c(C(N)=O)c1N [Compound 1, 5-amino-1-(5-hydroxy-2-methylphenyl)-3-phenyl-1H-pyrazole-4-carboxamide]
pIC50 [1]: 6.60 to 7.00
pEC50 (Myt1 Kinase): 6.00 to 6.30

Cc1ccc(O)cc1-n1nc(-c2ccc(F)cc2)c(C(N)=O)c1N [Compound 2, 5-amino-3-(4-fluorophenyl)-1-(5-hydroxy-2-methylphenyl)-1H-pyrazole-4-carboxamide]
pIC50 [1]: 6.60 to 7.00

COc1ccc(-c2nn(-c3cc(O)ccc3C)c(N)c2C(N)=O)cc1 [Compound 3, 5-amino-1-(5-hydroxy-2-methylphenyl)-3-(4-methoxyphenyl)-1H-pyrazole-4-carboxamide]
pIC50 [1]: < 6.60

Cc1ccc(O)cc1-n1nc(-c2ccc(Cl)cc2)c(C(N)=O)c1N [Compound 4, 5-amino-3-(4-chlorophenyl)-1-(5-hydroxy-2-methylphenyl)-1H-pyrazole-4-carboxamide]
pIC50 [1]: 6.60 to 7.00
pEC50 (Myt1 Kinase): < 6.00

Cc1ccc2[nH]ncc2c1-n1nc(-c2ccccc2)c(C(N)=O)c1N [Compound 5, 5-amino-1-(5-methyl-1H-indazol-4-yl)-3-phenyl-1H-pyrazole-4-carboxamide]
pIC50 [1]: 7.00 to 8.00
pEC50 (Myt1 Kinase): < 6.00

Cc1ccc(O)cc1-n1nc(-c2cccc(Br)c2)c(C(N)=O)c1N [Compound 6, 5-amino-3-(3-bromophenyl)-1-(5-hydroxy-2-methylphenyl)-1H-pyrazole-4-carboxamide]
pIC50 [1]: < 6.60
pEC50 (Myt1 Kinase): < 6.00

Cc1ccc(O)cc1-n1nc(-c2cccc(-c3ccncc3)c2)c(C(N)=O)c1N [Compound 7, 5-amino-1-(5-hydroxy-2-methylphenyl)-3-[3-(pyridin-4-yl)phenyl]-1H-pyrazole-4-carboxamide]
pIC50 [1]: < 6.60

Cc1ccc(O)cc1-n1nc(-c2cccc(C3CCNCC3)c2)c(C(N)=O)c1N [Compound 8, 5-amino-1-(5-hydroxy-2-methylphenyl)-3-[3-(piperidin-4-yl)phenyl]-1H-pyrazole-4-carboxamide]
pIC50 [1]: < 6.60

COc1ccc(S(=O)(=O)O)cc1-c1nn(-c2c(C)ccc(O)c2C)c(N)c1C(N)=O [Compound 60]
pIC50 [1]: < 6.60

Cc1ccc(O)c(C)c1-n1nc(-c2cccc(F)c2)c(C(N)=O)c1N [Compound 61]
pIC50 [1]: 7.00 to 8.00
pEC50 (Myt1 Kinase): < 6.00

Cc1ccc(O)c(C)c1-n1nc(-c2ccccc2Cl)c(C(N)=O)c1N [Compound 62]
pIC50 [1]: < 6.60

Cc1cccc(-c2nn(-c3c(C)ccc(O)c3C)c(N)c2C(N)=O)c1 [Compound 63]
pIC50 [1]: 7.00 to 8.00

COc1ccccc1-c1nn(-c2c(C)ccc(O)c2C)c(N)c1C(N)=O [Compound 64]
pIC50 [1]: < 6.60

Cc1ccc(O)c(C)c1-n1nc(-c2ccccc2F)c(C(N)=O)c1N [Compound 65]
pIC50 [1]: 7.00 to 8.00

Cc1ccccc1-c1nn(-c2c(C)ccc(O)c2C)c(N)c1C(N)=O [Compound 66]
pIC50 [1]: < 6.60

Cc1cc(Cl)c(O)c(C)c1-n1nc(-c2ccc(Br)o2)c(C(N)=O)c1N [Compound 74, 5-amino-3-(5-bromo-2-furyl)-1-(4-chloro-3-hydroxy-2,6-xylyl)-4-pyrazolecarboxamide]
pIC50 [1]: 7.00 to 8.00
pEC50 (Myt1 Kinase): < 6.00

Cc1ccc(O)c(C)c1-n1nc(-c2ccoc2)c(C(N)=O)c1N [Compound 76, 5-amino-3-(3-furyl)-1-(3-hydroxy-2,6-xylyl)-4-pyrazolecarboxamide]
pIC50 [1]: 7.00 to 8.00
pEC50 (Myt1 Kinase): < 6.00

Cc1ccc2[nH]ncc2c1-n1nc(-c2cc3ccccc3o2)c(C(N)=O)c1N [Compound 77, 5-amino-3-(1-benzofuran-2-yl)-1-(5-methyl-1H-indazol-4-yl)-4-pyrazolecarboxamide]
pIC50 [1]: 7.00 to 8.00
pEC50 (Myt1 Kinase): < 6.00

Cc1ccc(O)c(C)c1-n1nc(-c2coc(Br)c2)c(C(N)=O)c1N [Compound 78, 5-amino-3-(5-bromo-3-furyl)-1-(3-hydroxy-2,6-xylyl)-4-pyrazolecarboxamide]
pIC50 [1]: 7.00 to 8.00
pEC50 (Myt1 Kinase): 6.30 to 6.60

Cc1ccoc1-c1nn(-c2c(C)ccc(O)c2C)c(N)c1C(N)=O [Compound 83, 5-amino-1-(3-hydroxy-2,6-xylyl)-3-(3-methyl-2-furyl)-4-pyrazolecarboxamide]
pIC50 [1]: 7.00 to 8.00
pEC50 (Myt1 Kinase): < 6.00

Cc1ccc2[nH]ncc2c1-n1nc(-c2ccco2)c(C(N)=O)c1N [Compound 84, 5-amino-3-(2-furyl)-1-(5-methyl-1H-indazol-4-yl)-4-pyrazolecarboxamide]
pIC50 [1]: 7.00 to 8.00
pEC50 (Myt1 Kinase): < 6.00

Cc1ccc2[nH]ncc2c1-n1nc(-c2ccc(Br)o2)c(C(N)=O)c1N [Compound 85, 5-amino-3-(5-bromo-2-furyl)-1-(5-methyl-1H-indazol-4-yl)-4-pyrazolecarboxamide]
pIC50 [1]: 7.00 to 8.00
pEC50 (Myt1 Kinase): < 6.00

Cc1cc(-c2nn(-c3c(C)ccc(O)c3C)c(N)c2C(N)=O)oc1C [Compound 89, 5-amino-3-(4,5-dimethyl-2-furyl)-1-(3-hydroxy-2,6-xylyl)-4-pyrazolecarboxamide]
pIC50 [1]: ≥ 8.00
pEC50 (Myt1 Kinase): 6.30 to 6.60

NC(=O)c1c(-c2ccco2)nn(-c2c(Cl)ccc(O)c2Cl)c1N [Compound 91, 5-amino-1-(2,6-dichloro-3-hydroxyphenyl)-3-(2-furyl)-4-pyrazolecarboxamide]
pIC50 [1]: 7.00 to 8.00
pEC50 (Myt1 Kinase): < 6.00

Cc1ccc(O)c(C)c1-n1nc(-c2cnn(C)c2)c(C(N)=O)c1N [Compound 121]
pIC50 [1]: 7.00 to 8.00
